row,melting point,Structure (SMILES)
1,187 to 188 °C,"COc1ccc(-c2ccc(C(=O)Nc3ccc4c(c3)CCC(CN3CCCC3)=C4)cc2)cc1 [Example 148, 4′-Methoxy-N-[6-(1-pyrrolidinylmethyl)-7,8-dihydro-2-naphthalenyl][1,1′-biphenyl]-4-carboxamide]"
2,225 to 227 °C,"O=C(Nc1ccc2c(c1)CCC(CN1CCCC1)=C2)c1ccc(-c2ccc(F)cc2)nc1 [Example 149, 6-(4-Fluorophenyl)-N-[6-[(1-pyrrolidinyl)methyl]-7,8-dihydro-2-naphthalenyl]nicotinamide]"
3,216 to 219 °C,CN(C)CC1=Cc2ccc(NC(=O)c3ccc(-c4ccc(F)cc4)nc3)cc2CC1 [Example 151]
4,162 to 163 °C,"CN(C)CC1=Cc2ccc(NC(=O)c3ccc(-c4ccc(F)cc4F)nc3)cc2CC1 [Example 152, 6-(2,4-Difluorophenyl)-N-[6-[(dimethylamino)methyl]-7,8-dihydro-2-naphthalenyl]nicotinamide]"
5,186 to 187 °C,"O=C(Nc1ccc2c(c1)CCC(CN1CCCC1)=C2)c1ccc(-c2ccccc2)nc1 [Example 153, 6-Phenyl-N-[6-(1-pyrrolidinylmethyl)-7,8-dihydro-2-naphthalenyl]nicotinamide]"
6,197 to 198 °C,"Cc1ccc(C2CCN(C(=O)Nc3ccc4c(c3)CCC(CN3CCCC3)=C4)CC2)cc1 [Example 155, 4-(4-Methylphenyl)-N-[6-(1-pyrrolidinylmethyl)-7,8-dihydro-2-naphthalenyl]-1-piperidinecarboxamide]"
7,206 to 207 °C,O=C(Nc1ccc2c(c1)CCC(CN1CCCC1)=C2)N1CC=C(c2ccc(F)cc2)CC1 [Example 158]
8,217 to 218 °C,O=C(Nc1ccc2c(c1)CCC(CN1CCCC1)=C2)N1CC=C(c2ccc(Cl)cc2)CC1 [Example 159]
9,252 to 253 °C,"O=C(Nc1ccc2c(c1)CCC(CN1CCCC1)=C2)c1ccc(-c2ccc(Cl)cc2)nc1 [Example 162, 6-(4-Chlorophenyl)-N-[6-(1-pyrrolidinylmethyl)-7,8-dihydro-2-naphthalenyl]nicotinamide]"
10,248 to 249 °C,"CN(C)CC1=Cc2ccc(NC(=O)c3ccc(-c4ccc(Cl)cc4)nc3)cc2CC1 [Example 164, 6-(4-Chlorophenyl)-N-[6-[(dimethylamino)methyl]-7,8-dihydro-2-naphthalenyl]nicotinamide]"
11,194 to 195 °C,"O=C(Nc1ccc2c(c1)CCC(CN1CCCC1)=C2)N1CCC(c2ccc(Cl)cc2)CC1 [Example 165, 4-(4-Chlorophenyl)-N-[6-(1-pyrrolidinylmethyl)-7,8-dihydro-2-naphthalenyl]-1-piperidinecarboxamide]"
12,200 to 202 °C,"Cc1ccc(C2CCN(C(=O)Nc3ccc4c(c3)CCC(CN(C)C)=C4)CC2)cc1 [Example 167, N-[6-[(Dimethylamino)methyl]-7,8-dihydro-2-naphthalenyl]-4-(4-methylphenyl)-1-piperidinecarboxamide]"
13,161 to 163 °C,"CN(C)CCNC(=O)Cc1ccc(NC(=O)CCCc2nc(-c3cc4ccccc4o3)no2)cc1 [Example 182, 4-[3-(1-Benzofuran-2-yl)-1,2,4-oxadiazol-5-yl]-N-[4-[2-[[2-(dimethylamino)ethyl]amino]-2-oxoethyl]phenyl]butanamide]"
14,186 to 187 °C (dec.),"CN(C)CCNC(=O)Cc1ccc(NC(=O)c2cc3ccccc3s2)cc1 [Example 185, N-[4-[2-[[2-(Dimethylamino)ethyl]amino]-2-oxoethyl]phenyl]-1-benzothiophen-2-carboxamide]"
15,115 to 117 °C,"CN(C)CCNC(=O)Cc1ccc(NC(=O)Cc2ccccc2Cc2ccccc2)cc1 [Example 186, 2-(2-Benzylphenyl)-N-[4-[2-[[2-(dimethylamino)ethyl]amino]-2-oxoethyl]phenyl]acetamide]"
16,123 to 124 °C,"COc1ccc(CC(=O)Nc2ccc(CC(=O)NCCN(C)C)cc2)cc1OC [Example 187, 2-(3,4-dimethoxyphenyl)-N-[4-[2-[[2-(dimethylamino)ethyl]amino]-2-oxoethyl]phenyl]acetamide]"

# — US7115750B1, “Melanin concentrating hormone antagonist” (Takeda Pharmaceutical Company Limited, priority 1999, dated 2006)
